# Experimental data published in patent US20240368145A1, “METHODS FOR TREATING CANCER” (IMMUNIC AG, priority 2021, published 2024).
# Tests used:
# Format in all cases: cell-based
# RORγt = target: T1, RORγt (Homo sapiens, UniProt P51449); assay: RORγt inhibition, Indigo Biosciences Human RAR-related Orphan Receptor, Gamma Reporter Assay System; details: luciferase reporter cells, 22-24 h incubation; read-out: IC50 range, RORγt assay
# T1 sequence (P51449 269-518 limits assumed): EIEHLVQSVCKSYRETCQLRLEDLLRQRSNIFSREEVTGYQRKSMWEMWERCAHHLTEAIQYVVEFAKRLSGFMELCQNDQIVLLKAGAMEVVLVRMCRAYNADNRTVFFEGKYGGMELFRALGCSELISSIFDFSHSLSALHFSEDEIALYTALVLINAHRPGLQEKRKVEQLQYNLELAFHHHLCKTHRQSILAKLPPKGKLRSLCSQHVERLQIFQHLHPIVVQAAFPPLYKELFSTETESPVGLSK
# Protocol: The in vitro inhibition of RORγt was measured using Indigo Biosciences Human RAR-related Orphan Receptor, Gamma Reporter Assay System (Product #11304001-32) as described in the technical manual. In brief, 200 μL of Reporter Cells is dispensed into wells of the assay plate and preincubated for 4-6 h. Following the pre-incubation period, culture media are discarded and 200 μL/well of the prepared 1×-concentration treatment media are added. Following 22-24 h incubation, treatment media are discarded and Luciferase Detection Reagent is added. The intensity of light emission (in units of ‘Relative Light Units’; RLU) from each assay well is quantified using a plate-reading luminometer. Average values of RLU were determined for each treatment concentration. Non-linear regression analyses were performed and IC50 values determined using GraphPad Prism software. Provided inverse-agonists ursolic acid served as positive control.
# ATAD2/ANCCA mRNA = assay: Expression of AR target genes (qRT-PCR) in 22Rv1: ATAD2/ANCCA; details: 22Rv1, 1 μM, 48h; relative to vehicle control (DMSO)
# Protocol: (§1) The prostate cancer cell line 22Rv1 was treated for 48h with 1 μM Example compound 1, 1/1, 2/1, 2/2, 2/3, 2/4, 2/5, 2/6, 2/7, 2/8, 2/9 and 2/10 and reference compounds SR2211 and XY018. RNA was extracted using the RNA isolation kit XS (Macherey-Nagel) and following the manufacture's manual. RNA quantity was measured with the Nanodrop before reverse transcription using Superscript II (Invitrogen #100004925). For the quantitative real-time PCR with SYBR-Green (Qiagen #204074), the following primers were used:
# (§2) qRT-PCR was performed using SYBR-Green (Qiagen #204074) reagents in a PCR cycler (Gorbett Research) Rotor Gene RG3000 with the following program: denaturation for 5′ at 95° C.; 40 cycles of 20″ at 95° C. and 15″ at 60° C.″ and at the end of the last cycle, the melting temperature of the products was determined by gradually increasing from 60° C. to 99° C. CT values from all samples were normalized to reference (housekeeping) genes using the mean CT value of the GAPDH and YWHAZ (reference genes). Next the values are put relative to the untreated control (vehicle/DMSO).
# [1] = tested on: prostate cancer cell line 22RV1, DU145, LNCAP, PC3 and VCaP; assay: Oncolead profiling in a panel of 5 prostate cancer cell lines (summary); details: for inhibition at 30 µM: highest concentration (30 μM), VCaP cell line not included, read-out: average growth inhibition; for growth inhibition: in 4 of 5 prostate cancer cell lines
# Protocol: (§3) Cell growth was assessed by measuring protein content using sulforhodamin B. Growth inhibition was calculated by (TCMD−T0)/TNCT72h−T0)*100% with TCMD is the tumor growth at 72 h with the respective compound concentration. To is the protein content of the cell line before treatment and TNCT72h is the tumor growth of the DMSO control.
# [2] = tested on: prostate cancer cell line PC3; assay: Oncolead sulforhodamin B growth inhibition, PC3; details: sulforhodamin B assay; 72 and 120 h treatment; read-out: GI50 range PC3
# Protocol: as §3
# [3] = tested on: prostate cancer cell line VCaP; assay: Oncolead sulforhodamin B growth inhibition, VCaP; details: for GI50: Homo sapiens, VCaP, sulforhodamin B assay, 72 and 120 h treatment, read-out: GI50 range VCAP; for effect on growth of VCaP: highest dose (30 μM)
# Protocol: as §3
# FKBP5 mRNA = assay: Expression of AR target genes (qRT-PCR) in 22Rv1: FKBP5; details: Homo sapiens; 22Rv1, 1 μM, 48h; relative to vehicle control (DMSO)
# Protocol: as §1, §2
# EM2 (CML) = assay: Oncotest inhibition of viability, EM2; details: CML cell line EM2; read-out: IC50 range
# L363 (MM) = assay: Oncotest inhibition of viability, L363; details: Homo sapiens, L-363; MM cell line L363; read-out: IC50 range
# [4] = Viability and differentiation in different solid cancer cell lines; details: range over HEK293, A2780, MT3, MCF7, NCIH460, A-375, HCT15, HT1080
# AML cell line HL-60 = assay: CellTiter-Blue proliferation assay, HL-60; details: Homo sapiens, geometric mean relative IC50, 72 hours, read-out: IC50 range for cell line HL-60
# Protocol: (§4) Aim of this study was to evaluate compounds of Example 1, 1/1, 2/2, 2/5 and 2/6 in a proliferation assays. The 5 test compounds were tested in a CellTiter-Blue® based proliferation assay in three AML cell lines (HL-60, THP-1 and MOLM-13). The compounds were tested at 10 concentrations in half-log increments (highest concentration 30 μM or 100 μM) in duplicates. The incubation period with the applied compounds was fixed to 72 hours.
# RPMI8226 (MM) = assay: Oncotest inhibition of viability, RPMI8226; details: Homo sapiens, RPMI-8226; MM cell line RPMI8226; read-out: IC50 range
# AML cell line MOLM-13 = assay: CellTiter-Blue proliferation assay, MOLM-13; details: Homo sapiens, geometric mean relative IC50, 72 hours, read-out: IC50 range for cell line MOLM-13
# Protocol: as §4
# LP1 (MM) = assay: Oncotest inhibition of viability, LP1; details: MM cell line LP1; read-out: IC50 range
# NOMO1 (AML) = assay: Oncotest inhibition of viability, NOMO1; details: Homo sapiens, NOMO-1; AML cell line NOMO1; read-out: IC50 range
# [5] = tested on: more than 75 representative cancer cell lines; assay: Oncolead profiling in a panel of more than 75 cancer cell lines; details: FIG. 1 and FIG. 2
# Protocol: The compound of Example 1 and Example 1/1 was tested in vitro in more than 75 representative cancer cell lines at Oncolead (www.oncolead.com) according their standard procedure. The obtained data is summarised in FIG. 1 (Example 1) and FIG. 2 (Example 1/1).
# AML cell line THP-1 = assay: CellTiter-Blue proliferation assay, THP-1; details: Homo sapiens, geometric mean relative IC50, 72 hours, read-out: IC50 range for cell line THP-1
# Protocol: as §4
IC50 (RORγt),GI50 [2],GI50 [3],IC50 [4],IC50 (AML cell line HL-60),IC50 (RPMI8226 (MM)),IC50 (AML cell line MOLM-13),IC50 (AML cell line THP-1),Compound,ATAD2/ANCCA mRNA expression (ATAD2/ANCCA mRNA),inhibition at 30 µM [1],growth inhibition [1],effect on growth of VCaP [3],mrna remaining at 1 µM (FKBP5 mRNA),IC50 (EM2 (CML)),IC50 (L363 (MM)),IC50 (LP1 (MM)),IC50 (NOMO1 (AML)),"in vitro anticancer activity (Z-score panel, words) [5]"
10 to 100 nM,< 25 nM,≥ 5000 nM,–,–,–,–,–,CC(C)(O)CCn1ncc(-c2onc(-c3c(F)cccc3Cl)c2-c2ncccn2)c1C(F)(F)F [2/8],0.817,80%,strong growth inhibition,No effect,38.1%,–,–,–,–,–
< 10 nM,< 25 nM,≥ 5000 nM,1 to 25 nM,< 10 nM,< 10 nM,< 10 nM,10 to 100 nM,"COC(=O)c1c(-c2c(F)cccc2Cl)noc1-c1cnn(-c2cccc(Cl)c2)c1C(F)(F)F [Example 1, Methyl 3-(2-chloro-6-fluorophenyl)-5-(1-(3-chlorophenyl)-5-(trifluoromethyl)-1H-pyrazol-4-yl)isoxazole-4-carboxylate]",–,80%,strong growth inhibition,No effect,–,10 to 100 nM,< 10 nM,10 to 100 nM,100 to 1000 nM,exhibits an in vitro anticancer activity towards a broad spectrum of therapeutic cancer indication
< 10 nM,< 25 nM,≥ 5000 nM,1 to 25 nM,< 10 nM,–,< 10 nM,< 10 nM,Fc1cccc(Cl)c1-c1noc(-c2cnn(-c3cccc(Cl)c3)c2C(F)(F)F)c1-c1nccs1 [Example 1/1],–,80%,strong growth inhibition,No effect,–,–,–,–,–,exhibits an in vitro anticancer activity towards a broad spectrum of therapeutic cancer indication
